In the test the test system is RXFP1 gene expression in human fibroblast like synoviocytes. In words: RXFP1 gene expression by qPCR after corticosteroid treatment under fibrotic conditions. Type of test: cell-based. The settings on record: qPCR (FIG. 3).

Excerpt: RXFP1 gene expression after treatment with (left) dexamethasone, (middle) methylprednisolone, and (right) cortisone under fibrotic conditions.

As for `C[C@]12CCC(=O)C=C1CC[C@@H]1[C@@H]2C(=O)C[C@@]2(C)[C@H]1CC[C@]2(O)C(=O)CO` [cortisone], the RXFP1 gene expression entry is recorded as “increases RXFP1 gene expression”.
